# Results from PubChem BioAssay AID330 (DTP/NCI, 2004).
# Where “and” joins values, the source holds several entries; their conditions need not be identical. Identical values can stand only once. Toxic doses and inconclusive results are not listed.
# Test system: P388 leukemia ip, CD2F1 mice, survival T/C
# Test: NCI In Vivo Anticancer Drug Screen. Data for tumor model P388 Leukemia (intraperitoneal) in CD2F1 (CDF1) mice
# Conditions: endpoint: median survival time, higher = longer survival
# In short: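 Mice carrying the transplanted tumor received test compound or vehicle. Survival was recorded in each group, and the value is the treated-group measurement divided by that of the vehicle-treated control group.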
# [1] = dose: 6.25 mg/kg/injection, schedule: Q01DX009 (ip), vehicle: saline with Tween-80
# [2] = dose: 12.5 mg/kg/injection, schedule: Q01DX009 (ip), vehicle: Klucel (hydroxypropylcellulose) (HPC)
# [3] = dose: 50.0 mg/kg/injection, schedule: Q01DX009 (ip), vehicle: saline with Tween-80
# [4] = dose: 100.0 mg/kg/injection, schedule: Q01DX009 (ip), vehicle: saline with Tween-80
# [5] = dose: 200.0 mg/kg/injection, schedule: Q01DX009 (ip), vehicle: saline with Tween-80
# [6] = dose: 50.0 mg/kg/injection, schedule: Q01DX009 (ip), vehicle: Klucel (hydroxypropylcellulose) (HPC)
# [7] = dose: 100.0 mg/kg/injection, schedule: Q01DX009 (ip), vehicle: Klucel (hydroxypropylcellulose) (HPC)
# [8] = dose: 200.0 mg/kg/injection, schedule: Q01DX009 (ip), vehicle: Klucel (hydroxypropylcellulose) (HPC)
# [9] = dose: 100.0 mg/kg/injection, schedule: Q04DX002 (ip), vehicle: saline with Tween-80
# [10] = dose: 200.0 mg/kg/injection, schedule: Q04DX002 (ip), vehicle: saline with Tween-80
# [11] = dose: 400.0 mg/kg/injection, schedule: Q04DX002 (ip), vehicle: saline with Tween-80
# [12] = dose: 100.0 mg/kg/injection, schedule: Q01DX009 (ip), vehicle: saline
# [13] = dose: 200.0 mg/kg/injection, schedule: Q01DX009 (ip), vehicle: saline
# [14] = dose: 12.5 mg/kg/injection, schedule: Q04DX003 (ip), vehicle: Klucel (hydroxypropylcellulose) (HPC)
# [15] = dose: 25.0 mg/kg/injection, schedule: Q04DX003 (ip), vehicle: Klucel (hydroxypropylcellulose) (HPC)
# [16] = dose: 50.0 mg/kg/injection, schedule: Q04DX003 (ip), vehicle: Klucel (hydroxypropylcellulose) (HPC)
# [17] = dose: 100.0 mg/kg/injection, schedule: Q04DX003 (ip), vehicle: saline with Tween-80
# [18] = dose: 12.5 mg/kg/injection, schedule: Q01DX009 (ip), vehicle: saline with Tween-80
# [19] = dose: 25.0 mg/kg/injection, schedule: Q01DX009 (ip), vehicle: saline with Tween-80
structure (smiles),measurement,setting,value
Cc1nnc(NS(=O)(=O)c2ccc(N=Nc3cc(N=Nc4ccc(S(=O)(=O)Nc5nnc(C)s5)cc4)c4c(NC(=O)C(Cl)Cl)cccc4c3OC(=O)C(Cl)Cl)cc2)s1 (tested in a mixture with another compound),T/C,"dose: 3.12 mg/kg/injection, schedule: Q01DX009 (ip), vehicle: Klucel (hydroxypropylcellulose) (HPC)",111 % of control
same,T/C,"dose: 6.25 mg/kg/injection, schedule: Q01DX009 (ip), vehicle: Klucel (hydroxypropylcellulose) (HPC)",116 % of control
same,T/C,[1],109 % of control
same,T/C,[2],120 % of control
same,T/C,[3],99 % of control and 97 % of control
same,T/C,[4],100 % of control
same,T/C,[5],98 % of control
CC1=C(c2ccccc2)C2(c3ccccc3)[N-][n+]3c(ccc4ccccc43)C2(C)C1=O (stereo unspecified),T/C,"dose: 50.0 mg/kg/injection, schedule: Q01DX005 (ip), vehicle: Klucel (hydroxypropylcellulose) (HPC)",97 % of control
same,T/C,"dose: 100.0 mg/kg/injection, schedule: Q01DX005 (ip), vehicle: Klucel (hydroxypropylcellulose) (HPC)",97 % of control
CCCCCCC(/C=C/c1ccccc1Cl)=N\O,T/C,[6],92 % of control
same,T/C,[7],100 % of control
same,T/C,[8],105 % of control
CCOC(=O)/C(O)=C/C1=CC(=O)CC(C)(C)C1,T/C,[9],110 % of control
same,T/C,[10],114 % of control
same,T/C,[11],103 % of control
CC(=O)CS(C)(=O)=O,T/C,"dose: 25.0 mg/kg/injection, schedule: Q01DX009 (ip), vehicle: saline",103 % of control
same,T/C,"dose: 50.0 mg/kg/injection, schedule: Q01DX009 (ip), vehicle: saline",102 % of control
same,T/C,[12],101 % of control
same,T/C,[13],98 % of control
N#CN=[N+]([O-])c1cccc(Br)c1,T/C,"dose: 6.25 mg/kg/injection, schedule: Q04DX003 (ip), vehicle: Klucel (hydroxypropylcellulose) (HPC)",102 % of control
same,T/C,[14],101 % of control
same,T/C,[15],105 % of control
same,T/C,[16],100 % of control
NS(=O)(=O)c1ccc(NCc2cnc3ccccc3c2)cc1,T/C,"dose: 5.0 mg/kg/injection, schedule: Q01DX009 (ip), vehicle: saline",94 % of control
same,T/C,"dose: 10.0 mg/kg/injection, schedule: Q01DX009 (ip), vehicle: saline",88 % of control
same,T/C,"dose: 20.0 mg/kg/injection, schedule: Q01DX009 (ip), vehicle: saline",98 % of control
Cc1nc(N)c2nc(SCc3ccc(Cl)cc3)c(N)nc2n1,T/C,"dose: 25.0 mg/kg/injection, schedule: Q04DX003 (ip), vehicle: saline with Tween-80",100 % of control
same,T/C,"dose: 50.0 mg/kg/injection, schedule: Q04DX003 (ip), vehicle: saline with Tween-80",90 % of control
same,T/C,[17],92 % of control
CCOC(=O)Nc1cc2c(c(N)n1)N=C(c1ccc(Cl)cc1)CN2,T/C,"dose: 1.5 mg/kg/injection, schedule: Q01DX009 (ip), vehicle: Klucel (hydroxypropylcellulose) (HPC)",92 % of control
same,T/C,"dose: 3.0 mg/kg/injection, schedule: Q01DX009 (ip), vehicle: Klucel (hydroxypropylcellulose) (HPC)",111 % of control
same,T/C,"dose: 12.0 mg/kg/injection, schedule: Q01DX009 (ip), vehicle: Klucel (hydroxypropylcellulose) (HPC)",95 % of control
same,T/C,[2],86 % of control
same,T/C,[16],101 % of control
NC(=O)c1ccccc1OC(=O)NCCO,T/C,[3],106 % of control
same,T/C,[4],95 % of control
same,T/C,[5],100 % of control
CC1(C)C(=O)OC(n2cc(F)c(=O)[nH]c2=O)C1=O (stereo unspecified),T/C,"dose: 11.25 mg/kg/injection, schedule: Q04DX002 (ip), vehicle: distilled water + Tween-80",105 % of control
same,T/C,"dose: 22.5 mg/kg/injection, schedule: Q04DX002 (ip), vehicle: distilled water + Tween-80",105 % of control
same,T/C,"dose: 45.0 mg/kg/injection, schedule: Q04DX002 (ip), vehicle: distilled water + Tween-80",116 % of control
same,T/C,"dose: 45.0 mg/kg/injection, schedule: Q04DX002 (ip), vehicle: saline with Tween-80",110 % of control
same,T/C,"dose: 90.0 mg/kg/injection, schedule: Q04DX002 (ip), vehicle: distilled water + Tween-80",116 % of control
same,T/C,"dose: 360.0 mg/kg/injection, schedule: Q04DX002 (ip), vehicle: distilled water + Tween-80",90 % of control
same,T/C,"dose: 360.0 mg/kg/injection, schedule: Q04DX002 (ip), vehicle: saline with Tween-80",160 % of control
S=C1Nc2ccccc2C2CC=NN12 (stereo unspecified),T/C,[18],91 % of control
same,T/C,[19],112 % of control
same,T/C,[3],88 % of control and 96 % of control
same,T/C,[5],86 % of control
CC(C)N1C(=O)C(C#N)=C(c2ccccc2)SC1c1ccccc1 (stereo unspecified),T/C,"dose: 3.13 mg/kg/injection, schedule: Q01DX009 (ip), vehicle: saline with Tween-80",104 % of control
same,T/C,[1],101 % of control
same,T/C,[18],106 % of control
same,T/C,[3],94 % of control
same,T/C,[4],99 % of control
CC(=O)OCC12C=CC(O1)C1C(=O)OC(=O)C12 (stereo unspecified),T/C,"dose: 50.0 mg/kg/injection, schedule: Q01DX005 (ip), vehicle: saline with Tween-80",94 % of control
same,T/C,"dose: 100.0 mg/kg/injection, schedule: Q01DX005 (ip), vehicle: saline with Tween-80",88 % of control
CCOC(C)n1c(C)nc2ccccc21 (stereo unspecified),T/C,"dose: 100.0 mg/kg/injection, schedule: Q04DX002 (ip), vehicle: saline",99 % of control
same,T/C,"dose: 200.0 mg/kg/injection, schedule: Q04DX002 (ip), vehicle: saline",101 % of control
same,T/C,"dose: 400.0 mg/kg/injection, schedule: Q04DX002 (ip), vehicle: saline",97 % of control
CN(C)C=Nc1ccc(Cl)cc1,T/C,[19],99 % of control
same,T/C,[3],105 % of control
NC(=S)N/N=C\C12CC3CC(CC(C3)C1)C2,T/C,[3],96 % of control
same,T/C,[4],108 % of control
O=C(O)c1ccccc1-c1nc2ccccc2[nH]1,T/C,"dose: 100.0 mg/kg/injection, schedule: Q01DX001 (ip), vehicle: saline with Tween-80",99 % of control
COc1ccccc1C1C(C#N)C(=O)NC(=O)C1C#N (stereo unspecified),T/C,[6],113 % of control
same,T/C,[7],105 % of control
same,T/C,[8],105 % of control
CCOP(=O)(O)C1CCCC(C)[N-]1.CCOP(=O)(O)C1CCCC(C)[N-]1.[Cu+2] (stereo unspecified),T/C,[14],101 % of control
same,T/C,[15],112 % of control
Cc1cc2cccc(Br)c(=O)c2o1,T/C,"dose: 6.25 mg/kg/injection, schedule: Q01DX001 (ip), vehicle: saline with Tween-80",95 % of control
same,T/C,"dose: 12.5 mg/kg/injection, schedule: Q01DX001 (ip), vehicle: saline with Tween-80",100 % of control
same,T/C,"dose: 25.0 mg/kg/injection, schedule: Q01DX001 (ip), vehicle: saline with Tween-80",104 % of control
CN=C(N)N/N=C(\c1ccccc1)c1ccc(Cl)c([N+](=O)[O-])c1,T/C,"dose: 12.5 mg/kg/injection, schedule: Q04DX002 (ip), vehicle: saline with Tween-80",105 % of control
same,T/C,"dose: 25.0 mg/kg/injection, schedule: Q04DX002 (ip), vehicle: saline with Tween-80",105 % of control
same,T/C,"dose: 50.0 mg/kg/injection, schedule: Q04DX002 (ip), vehicle: saline with Tween-80",99 % of control
same,T/C,[9],97 % of control
same,T/C,[10],98 % of control
same,T/C,[11],113 % of control
O=[N+]([O-])c1ccc(/C=N\Nc2ccc([N+](=O)[O-])cn2)cc1,T/C,[12],100 % of control
same,T/C,[17],90 % of control
same,T/C,[13],115 % of control
same,T/C,"dose: 200.0 mg/kg/injection, schedule: Q04DX003 (ip), vehicle: saline with Tween-80",104 % of control
same,T/C,"dose: 400.0 mg/kg/injection, schedule: Q01DX009 (ip), vehicle: saline",105 % of control
same,T/C,"dose: 400.0 mg/kg/injection, schedule: Q04DX003 (ip), vehicle: saline with Tween-80",109 % of control
[Cl][Hg][c]1ccccc1N=Nc1ccccc1I,T/C,[18],101 % of control
same,T/C,[19],96 % of control
same,T/C,[3],113 % of control and 98 % of control
same,T/C,[4],122 % of control and 94 % of control
O=S(=O)(CS(=O)(=O)c1ccccc1Br)c1ccccc1Br,T/C,"dose: 30.0 mg/kg/injection, schedule: Q01DX005 (ip), vehicle: Klucel (hydroxypropylcellulose) (HPC)",100 % of control
same,T/C,"dose: 60.0 mg/kg/injection, schedule: Q01DX005 (ip), vehicle: Klucel (hydroxypropylcellulose) (HPC)",100 % of control
same,T/C,"dose: 120.0 mg/kg/injection, schedule: Q01DX005 (ip), vehicle: Klucel (hydroxypropylcellulose) (HPC)",100 % of control
same,T/C,"dose: 240.0 mg/kg/injection, schedule: Q01DX005 (ip), vehicle: Klucel (hydroxypropylcellulose) (HPC)",100 % of control
